Data on two compounds can be found in US20070148110A1, “Aqueous-alcoholic depigmenting gels comprising mequinol and adapalene” (GALDERMA RESEARCH & DEVELOPMENT, priority 2004, published 2007).

In the assay the test system is skin of the tail of the SKH2 mouse. The assay is described as follows: Depigmenting activity on the skin of the tail of the SKH2 mouse. In kind it is in vivo. More on the design: key to depigmentation score: 0: natural pigmentation; −1: slight depigmentation; −2: moderate depigmentation; −3: marked depigmentation; −4: total depigmentation. As to conditions: adapalene 0.1%; for depigmentation score: 4 weeks topical; for depigmenting effect: topical, after 4 weeks, mequinol 2%. How it is done:
The purpose of the present study is to evaluate the depigmenting activity of a composition comprising either (i) 2% of mequinol, (ii) 0.1% of adapalene or (iii) the combination of both of them (composition according to the invention) on the skin of the tail of the SKH2 mouse after 4 weeks of topical application.
The two formulations gel and gel-cream are also compared. The two formulations (20 μl) are applied topically on the tails of SKH2 mice separated into two groups (female mice about 9 weeks old) at the rate of one application per day for 5 days over a period of 4 weeks.
Evaluation is based on various clinical observations: once a week, the pigmentation is evaluated as a score on a scale from 0 to 4. The basis of scoring is as follows: • 0: natural pigmentation Depigmentation scale: scores −1 to −4 • −1: slight depigmentation • −2: moderate depigmentation • −3: marked depigmentation • −4: total depigmentation

Turning to `COc1ccc(-c2ccc3cc(C(=O)O)ccc3c2)cc1C12CC3CC(CC(C3)C1)C2` [Adapalene, 6-[3-(1-adamantyl)-4-methoxyphenyl]-2-naphthoic acid], the depigmenting effect entry is “does not have a depigmenting effect”. Moreover, for the setting “gel formulation”, the depigmentation score came out at 0. The depigmentation score (gel-cream formulation) was 0.

As to `COc1ccc(O)cc1` [Mequinol, 4-hydroxyanisole], the depigmenting effect result was “significant depigmenting effect”.
